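Compound exposure: 48 hours, 5 concentrations, 96-well plates. Abbreviation: GI50, concentration required for 50% inhibition of growth.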 Active and inactive are the calls of the source. No stated cut-off is given here; in the data, active = GI50 up to about 1.1 µM and inactive = higher.
Assays:
Assay in all cases: DTP human tumour cell line panel, 48 h
[1] = test system: HCT-15
[2] = test system: SF-539
[3] = test system: T47D
[4] = test system: NCI-H226
[5] = test system: Hs-578T
[6] = test system: CCRF-CEM
[7] = test system: SF-268
[8] = test system: SK-OV-3
[9] = test system: HOP-62
[10] = test system: UO-31
[11] = test system: SNB-19
[12] = test system: K562
[13] = test system: OVCAR-3
[14] = test system: HCT-116
[15] = test system: NCI/ADR-RES
[16] = test system: SK-MEL-28
[17] = test system: OVCAR-5
[18] = test system: A549
[19] = test system: TK-10
[20] = test system: EKVX
[21] = test system: COLO 205
[22] = test system: BT-549
[23] = test system: MDA-N
[24] = test system: NCI-H460
[25] = test system: OVCAR-8
[26] = test system: U-251
[27] = test system: UACC-62
[28] = test system: MCF7
[29] = test system: ACHN
[30] = test system: RXF 393
[31] = test system: HOP-92
[32] = test system: IGROV-1
[33] = test system: PC-3
[34] = test system: SR
[35] = test system: DU-145
[36] = test system: SK-MEL-5
[37] = test system: MOLT-4
[38] = test system: MDA-MB-231
[39] = test system: HCC 2998
[40] = test system: KM12
[41] = test system: 786-0
[42] = test system: SN12C
[43] = test system: SNB-75
[44] = test system: SF-295
[45] = test system: M14
[46] = test system: Malme-3M
[47] = test system: MDA-MB-435
[48] = test system: HT-29
[49] = test system: SW-620
[50] = test system: NCI-H23
[51] = test system: UACC-257
[52] = test system: SK-MEL-2
[53] = test system: RPMI-8226
[54] = test system: CAKI-1
[55] = test system: HL-60
[56] = test system: NCI-H522

Measured: GI50

CC(=O)Oc1ccc2c(c1)oc1c3ccc(OC(C)=O)cc3n(C)c(=O)c21
inactive: [2] 27.1 µM | [3] 34.8 µM | [4] 10.2 µM | [5] 4.48 µM | [6] 18.3 µM | [7] 12.5 µM | [8] 14.8 µM | [9] 34.9 µM | [10] 50.1 µM | [11] > 100 µM | [12] 30.5 µM | [13] 32.5 µM | [14] 20.9 µM | [15] 15.7 µM | [16] 16.3 µM | [17] 51.9 µM | [18] 35.1 µM | [19] 70.8 µM | [20] 13.2 µM | [21] 21.6 µM | [22] 93.1 µM | [23] 32 µM | [24] 36.3 µM | [25] 22.5 µM | [26] 55 µM | [27] 34.8 µM | [28] 35.6 µM | [29] 37.4 µM | [30] 38.7 µM | [31] 28.7 µM | [32] 29.9 µM | [33] 22.1 µM | [34] 33.5 µM | [35] 24 µM | [36] 4.71 µM | [37] 25.1 µM | [38] 27 µM | [39] 17.2 µM | [40] 3.78 µM | [41] 1.15 µM | [42] 27.2 µM | [43] 1.14 µM | [44] 36.7 µM | [45] 10.3 µM | [46] 6.47 µM | [47] 37.8 µM | [48] 31.8 µM | [49] 26.4 µM | [50] 46.3 µM | [51] 21.9 µM
36.5 µM: [1]

N#CCCC(CCC#N)(CCC#N)NO
inactive: [2] > 100 µM | [3] > 100 µM | [4] > 100 µM | [5] > 100 µM | [52] > 100 µM | [7] > 100 µM | [8] > 100 µM | [53] > 100 µM | [10] > 100 µM | [11] > 100 µM | [12] > 100 µM | [14] > 100 µM | [15] > 100 µM | [17] > 100 µM | [18] > 100 µM | [19] > 100 µM | [20] > 100 µM | [21] > 100 µM | [22] > 100 µM | [23] > 100 µM | [24] > 100 µM | [25] > 100 µM | [26] > 100 µM | [27] > 100 µM | [28] > 100 µM | [29] > 100 µM | [30] > 100 µM | [31] > 100 µM | [32] > 100 µM | [33] > 100 µM | [54] > 100 µM | [34] > 100 µM | [55] > 100 µM | [35] > 100 µM | [36] > 100 µM | [38] > 100 µM | [40] > 100 µM | [41] > 100 µM | [42] > 100 µM | [43] 73.8 µM | [44] > 100 µM | [45] > 100 µM | [46] > 100 µM | [47] > 100 µM | [48] > 100 µM | [49] > 100 µM | [50] > 100 µM | [51] > 100 µM
> 100 µM: [1]
active: [56] 0.013 µM

From ChEMBL document CHEMBL1201862, “PubChem BioAssay data set” (2004)
